According to patent US9789187B2, “Stable pharmaceutical composition for atherosclerosis” (Cadila Pharmaceuticals Limited, priority 2009, dated 2017):
Like-named read-outs stand apart in the source and are kept apart here. One block for each compound: values may come before it.

Tests used:
Urinary thromboxane = Urinary thromboxane levels (antiplatelet activity); type: in vivo, human; conditions: group taking aspirin vs group taking MCP
[1] = Randomized controlled study of heart rate over 24 hrs in normal healthy volunteers; type: in vivo; conditions: seen at 4.5 hrs; 16 in each group; heart rate measured for 24 hrs
[2] = cited from earlier work
[3] = Cross over randomized two period pharmacokinetic study, single MCP (test) vs market single ingredient pill (reference)
[4] = Clinical trial for efficacy: reduction in sitting systolic and diastolic blood pressure; type: in vivo, human; parameters: Effect on Systolic B.P., Hypertensive / Effect on Systolic B.P., Non hypertensive / Effect on Diastolic B.P., Hypertensive / Effect on Diastolic B.P., Non hypertensive / Effect on Systolic B.P., Diabetics / Effect on Systolic B.P., Non diabetics / Effect on Diastolic B.P., Diabetics / Effect on Diastolic B.P., Non diabetics: unit not given here
Method: Reduction in sitting diastolic and sitting systolic blood pressure was measured in a cohort of population who received multi-component pill (n=392) or a pill containing three antihypertensive drugs (n=196).

[5] = human, in vivo
[6] = Randomized double blind controlled study of change in lipid profile (3 months); type: in vivo, human; conditions: simvastatin 20 mg daily for 3 months; 198 subjects alone, 406 as multi-component composition
Excerpt: The multi-component pharmaceutical composition included The change in lipid profile as compared to baseline is provided in a table below.

[7] = analyte of the table title after market single ingredient pill (reference)
[8] = analyte of the table title after single MCP (test)
[9] = multi-component pill n=392, hydrochlorothiazide n=199, two drugs n=207,205,209, three drugs n=196
[10] = MCP (test) / single ingredient pill (reference)

SMILES: CC(=O)Oc1ccccc1C(=O)O [Aspirin, acetylsalicylic acid]
change in SGPT by two fold, S. Potassium above 5.5 and increase in serum creatinine by 50% (aspirin 100 mg (n=172) compared with MCP (n=334), daily for three months): marginally higher
All reported Adverse events (human, in vivo, 3 months): 163
Gastritis/dyspepsia (serious adverse leading to discontinuation) (human, in vivo, 3 months): 1.4%
Urinary thromboxane levels (Urinary thromboxane): identical

SMILES: CC(C)NCC(O)COc1ccc(CC(N)=O)cc1 (centres unmarked) [Atenolol]
Peak decrease in heart rate [1]: 5.38

SMILES: COc1ccc([C@@H]2Sc3ccccc3N(CCN(C)C)C(=O)[C@@H]2OC(C)=O)cc1 [Diltiazem]
increase of AUC of simvastatin (in words) ([2]; co-administered drug raises simvastatin AUC): two fold

SMILES: NS(=O)(=O)c1cc2c(cc1Cl)NCNS2(=O)=O [Hydrochlorothiazide]
Dizziness and hypotension (serious adverse leading to discontinuation) (Thiazide n=199, MCP n=392): 3.3%
All reported Adverse events (three month trial, groups of 205 (aspirin, thiazide, simvastatin alone), 412 (multi-component pill)): 161
Ln AUC0-t, Ref. Geo LSM [3, 7]: 621.884 ng·h/mL
Ln AUCo-∞, Ref. Geo LSM [3, 7]: 668.583 ng·h/mL
Ln Cmax, Ref. Geo LSM [3, 7]: 92.388 ng/mL
Ln AUC0-t, Test Geo LSM [3, 8]: 579.174 ng·h/mL
Ln AUCo-∞, Test Geo LSM [3, 8]: 619.693 ng·h/mL
Ln Cmax, Test Geo LSM [3, 8]: 93.437 ng/mL
Effect on Diastolic B.P., Diabetics ([4]; diabetics): 1.5
Effect on Systolic B.P., Diabetics ([4]; diabetics): 3.4
Effect on Diastolic B.P., Hypertensive ([4]; hypertensives): 2.5
Effect on Systolic B.P., Hypertensive ([4]; hypertensives): 3.0
Mean change in sitting diastolic blood pressure [4, 9]: 1.2 mm of Hg
Mean change in sitting systolic blood pressure [4, 9]: 2.2 mm of Hg
Effect on Diastolic B.P., Non diabetics ([4]; nondiabetics): 1.1
Effect on Systolic B.P., Non diabetics ([4]; nondiabetics): 1.6
Effect on Diastolic B.P., Non hypertensive ([4]; nonhypertensives): 0.5
Effect on Systolic B.P., Non hypertensive ([4]; nonhypertensives): 1.8

SMILES: COC(=O)C1=C(C)NC(C)=C(C(=O)OCC(C)C)C1c1ccccc1[N+](=O)[O-] (centres unmarked) [Nisoldipine]
increase of AUC of telmisartan ([2]; co-administered drug raises telmisartan AUC): 132%

Ln AUC0-t, Ratio (T/R) * 100 [5]: 109.98
Ln AUCo-∞, Ratio (T/R) * 100 [5]: 109.09
Ln Cmax, Ratio (T/R) * 100 [5]: 118.51
SMILES: CCOC(=O)[C@H](CCc1ccccc1)N[C@@H](C)C(=O)N1[C@H](C(=O)O)C[C@@H]2CCC[C@@H]21 [Ramipril]
Cough (serious adverse leading to discontinuation) (human, in vivo, 3 months): 1.4%

Ln AUC0-t, Ratio (T/R) * 100 [5]: 105.31
Ln AUCo-∞, Ratio (T/R) * 100 [5]: 105.93
Ln Cmax, Ratio (T/R) * 100 [5]: 117.50
SMILES: C[C@H](N[C@@H](CCc1ccccc1)C(=O)O)C(=O)N1[C@H](C(=O)O)C[C@@H]2CCC[C@@H]21 [Ramiprilat]

Ln AUC0-t, Ratio (T/R) * 100 [3, 10]: 117.54
Ln AUCo-∞, Ratio (T/R) * 100 [3, 10]: 117.82
Ln Cmax, Ratio (T/R) * 100 [3, 10]: 99.48
SMILES: O=C(O)c1ccccc1O [Salicylic Acid]

SMILES: CCC(C)(C)C(=O)O[C@H]1C[C@@H](C)C=C2C=C[C@H](C)[C@H](CC[C@@H]3C[C@@H](O)CC(=O)O3)[C@H]21 [Simvastatin]
change in Apo B compared to baseline [6]: 20.37%
change in LDL compared to baseline [6]: 26.83%
change in Total Cholesterol compared to baseline [6]: 17.95%
